Experimental data taken from publication PMC9402538, “Rational design of a sensitivity-enhanced tracer for discovering efficient APC–Asef inhibitors” (Nature Communications, 2022).
Where a SMILES comes first, the peptide text is derived from it. The star is where a group is joined. Bz = O=C(c1ccccc1)*

Molecular target: T1, APC (303–739) (Homo sapiens, UniProt P25054)
T1 sequence (P25054 303-739): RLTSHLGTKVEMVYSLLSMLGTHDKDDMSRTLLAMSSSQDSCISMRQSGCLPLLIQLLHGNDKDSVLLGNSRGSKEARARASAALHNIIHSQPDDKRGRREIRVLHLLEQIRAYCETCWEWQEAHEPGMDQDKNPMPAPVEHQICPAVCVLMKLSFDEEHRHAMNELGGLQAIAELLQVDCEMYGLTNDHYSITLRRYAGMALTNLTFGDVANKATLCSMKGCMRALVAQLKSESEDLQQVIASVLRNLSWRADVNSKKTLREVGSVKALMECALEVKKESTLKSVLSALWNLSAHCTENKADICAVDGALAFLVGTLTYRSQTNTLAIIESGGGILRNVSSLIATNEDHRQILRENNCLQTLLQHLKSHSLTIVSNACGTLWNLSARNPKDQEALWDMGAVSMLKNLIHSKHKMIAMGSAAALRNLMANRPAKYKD
Test: FP competitive assay using tracer 7
Type: binding
Conditions: for IC50: Table 3 source data
Summary of the method: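 Peptide dilutions were first incubated 1 h at room temperature with APC (303–739) in HEPES pH 7.5 buffer containing 300 mM NaCl, EDTA and DTT. Added FITC tracer 7 (400 nM stock) displaced over a further 1.5 h before polarization reading. IC50 values came from nonlinear regression fits of triplicate data.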

CC(C)C[C@H](NC(=O)[C@H](CO)NC(=O)[C@H](CCC(=O)O)NC(=O)CNC(=O)[C@H](C)NC(=O)c1ccccc1)C(=O)N[C@@H](Cc1ccc(O)cc1)C(=O)N[C@@H](CCC(=O)O)C(N)=O [MAI-511] (Bz-AGESLYE-NH2)
inhibition at 0.0002 µM (Conc. 0.0002 μM, individual repeats, Fig3b): 1.5%
inhibition at 0.0005 µM (Conc. 0.0005 μM, individual repeats, Fig3b): 1.2%
inhibition at 0.001 µM (Conc. 0.001 μM, individual repeats, Fig3b): 1.9%
inhibition at 0.002 µM (Conc. 0.002 μM, individual repeats, Fig3b): 1.5%
inhibition at 0.0024 µM (Conc. 0.0024 μM, individual repeats, Fig3b): 1.1%
inhibition at 0.0039 µM (Conc. 0.0039 μM, individual repeats, Fig3b): 2.5%
inhibition at 0.0049 µM (Conc. 0.0049 μM, individual repeats, Fig3b): 1.1%
inhibition at 0.006 µM (Conc. 0.006 μM, individual repeats, Fig3b): 4.7%
inhibition at 0.0078 µM (Conc. 0.0078 μM, individual repeats, Fig3b): 5.3%
inhibition at 0.0098 µM (Conc. 0.0098 μM, individual repeats, Fig3b): 6.1%
inhibition at 0.012 µM (Conc. 0.012 μM, individual repeats, Fig3b): 7.9%
inhibition at 0.0156 µM (Conc. 0.0156 μM, individual repeats, Fig3b): 8.5%
inhibition at 0.0195 µM (Conc. 0.0195 μM, individual repeats, Fig3b): 11.3%
inhibition at 0.024 µM (Conc. 0.024 μM, individual repeats, Fig3b): 16.8%
inhibition at 0.0313 µM (Conc. 0.0313 μM, individual repeats, Fig3b): 22.7%
inhibition at 0.0391 µM (Conc. 0.0391 μM, individual repeats, Fig3b): 22.5%
inhibition at 0.049 µM (Conc. 0.049 μM, individual repeats, Fig3b): 31.3%
inhibition at 0.0625 µM (Conc. 0.0625 μM, individual repeats, Fig3b): 39%
inhibition at 0.0781 µM (Conc. 0.0781 μM, individual repeats, Fig3b): 39.5%
inhibition at 0.098 µM (Conc. 0.098 μM, individual repeats, Fig3b): 49%
inhibition at 0.125 µM (Conc. 0.125 μM, individual repeats, Fig3b): 56.2%
inhibition at 0.1563 µM (Conc. 0.1563 μM, individual repeats, Fig3b): 58.3%
inhibition at 0.195 µM (Conc. 0.195 μM, individual repeats, Fig3b): 67.3%
inhibition at 0.25 µM (Conc. 0.25 μM, individual repeats, Fig3b): 72.5%
inhibition at 0.3125 µM (Conc. 0.3125 μM, individual repeats, Fig3b): 72.1%
inhibition at 0.391 µM (Conc. 0.391 μM, individual repeats, Fig3b): 80.1%
inhibition at 0.5 µM (Conc. 0.5 μM, individual repeats, Fig3b): 83.2%
inhibition at 0.625 µM (Conc. 0.625 μM, individual repeats, Fig3b): 82.5%
inhibition at 0.781 µM (Conc. 0.781 μM, individual repeats, Fig3b): 86.3%
inhibition at 1 µM (Conc. 1 μM, individual repeats, Fig3b): 90.6%
inhibition at 1.25 µM (Conc. 1.25 μM, individual repeats, Fig3b): 89.5%
inhibition at 1.563 µM (Conc. 1.563 μM, individual repeats, Fig3b): 91.5%
inhibition at 2 µM (Conc. 2 μM, individual repeats, Fig3b): 95.4%
inhibition at 2.5 µM (Conc. 2.5 μM, individual repeats, Fig3b): 93.6%
inhibition at 3.125 µM (Conc. 3.125 μM, individual repeats, Fig3b): 93.5%
inhibition at 5 µM (Conc. 5 μM, individual repeats, Fig3b): 95.7%
inhibition at 6.25 µM (Conc. 6.25 μM, individual repeats, Fig3b): 94.1%
inhibition at 10 µM (Conc. 10 μM, individual repeats, Fig3b): 96.6%
inhibition at 12.5 µM (Conc. 12.5 μM, individual repeats, Fig3b): 95%
inhibition at 20 µM (Conc. 20 μM, individual repeats, Fig3b): 97.1%
inhibition at 25 µM (Conc. 25 μM, individual repeats, Fig3b): 95.6%
inhibition at 50 µM (Conc. 50 μM, individual repeats, Fig3b): 94.9%
IC50 (IC50(μM) Repeat 1, Repeat 1): 0.0848 µM
IC50 (IC50(μM) Repeat 2, Repeat 2): 0.102 µM
IC50 (IC50(μM) Repeat 3, Repeat 3): 0.108 µM
IC50 (IC50(μM) mean, mean of 3 repeats): 0.0984 µM
mean (FP signal, FigS5) (Repeat 1, Conc. 0.0024 μM): 300.7
mean (FP signal, FigS5) (Repeat 1, Conc. 0.0049 μM): 300.5
mean (FP signal, FigS5) (Repeat 1, Conc. 0.0098 μM): 288
mean (FP signal, FigS5) (Repeat 1, Conc. 0.0195 μM): 274.7
mean (FP signal, FigS5) (Repeat 1, Conc. 0.0391 μM): 246.3
mean (FP signal, FigS5) (Repeat 1, Conc. 0.0781 μM): 203.3
mean (FP signal, FigS5) (Repeat 1, Conc. 0.1563 μM): 155.7
mean (FP signal, FigS5) (Repeat 1, Conc. 0.3125 μM): 120.7
mean (FP signal, FigS5) (Repeat 1, Conc. 0.625 μM): 94.3
mean (FP signal, FigS5) (Repeat 1, Conc. 1.25 μM): 76.7
mean (FP signal, FigS5) (Repeat 1, Conc. 2.5 μM): 66.3
mean (FP signal, FigS5) (Repeat 1, Conc. 5 μM): 61
mean (FP signal, FigS5) (Repeat 1, Conc. 10 μM): 58.7
mean (FP signal, FigS5) (Repeat 1, Conc. 20 μM): 57.3
mean (FP signal, FigS5) (Repeat 2, Conc. 0.0002 μM): 300.7
mean (FP signal, FigS5) (Repeat 2, Conc. 0.0005 μM): 301.3
mean (FP signal, FigS5) (Repeat 2, Conc. 0.001 μM): 299.7
mean (FP signal, FigS5) (Repeat 2, Conc. 0.002 μM): 300.7
mean (FP signal, FigS5) (Repeat 2, Conc. 0.0039 μM): 298
mean (FP signal, FigS5) (Repeat 2, Conc. 0.0078 μM): 291
mean (FP signal, FigS5) (Repeat 2, Conc. 0.0156 μM): 283
mean (FP signal, FigS5) (Repeat 2, Conc. 0.0313 μM): 247.3
mean (FP signal, FigS5) (Repeat 2, Conc. 0.0625 μM): 206.3
mean (FP signal, FigS5) (Repeat 2, Conc. 0.125 μM): 163
mean (FP signal, FigS5) (Repeat 2, Conc. 0.25 μM): 122
mean (FP signal, FigS5) (Repeat 2, Conc. 0.5 μM): 95.3
mean (FP signal, FigS5) (Repeat 2, Conc. 1 μM): 76.7
mean (FP signal, FigS5) (Repeat 2, Conc. 2 μM): 64.7
mean (FP signal, FigS5) (Repeat 3, Conc. 0.006 μM): 301.3
mean (FP signal, FigS5) (Repeat 3, Conc. 0.012 μM): 293
mean (FP signal, FigS5) (Repeat 3, Conc. 0.024 μM): 270
mean (FP signal, FigS5) (Repeat 3, Conc. 0.049 μM): 232.3
mean (FP signal, FigS5) (Repeat 3, Conc. 0.098 μM): 186.3
mean (FP signal, FigS5) (Repeat 3, Conc. 0.195 μM): 138.7
mean (FP signal, FigS5) (Repeat 3, Conc. 0.391 μM): 105.3
mean (FP signal, FigS5) (Repeat 3, Conc. 0.781 μM): 89.3
mean (FP signal, FigS5) (Repeat 3, Conc. 1.563 μM): 75.7
mean (FP signal, FigS5) (Repeat 3, Conc. 3.125 μM): 70.7
mean (FP signal, FigS5) (Repeat 3, Conc. 6.25 μM): 69
mean (FP signal, FigS5) (Repeat 3, Conc. 12.5 μM): 66.7
mean (FP signal, FigS5) (Repeat 3, Conc. 25 μM): 65
mean (FP signal, FigS5) (Repeat 3, Conc. 50 μM): 67
